Test: xn = mol fraction of the nth substance listed

O=C(O)C(=O)O + C[N+](C)(C)Cc1ccccc1.[Cl-]
101 kPa, x2 = 0.5
Settings	electrical conductivity [S/m]	viscosity [mPa·s]
293.14 K	0.2104	–
293.17 K	–	1971
298.07 K	0.3284	–
298.09 K	–	1362
303.08 K	0.4611	–
303.11 K	–	714
308.09 K	0.6182	–
308.12 K	–	452
312.95 K	–	266.7
313.1 K	0.7996	–
317.96 K	–	197.3
318.18 K	1.025	–
323.06 K	–	166.6
323.19 K	1.246	–
327.98 K	–	58.6
328.11 K	1.505	–
332.99 K	–	27.7
333.03 K	1.774	–

CCCC[n+]1ccn(C)c1.[Br-] + C[NH2+]CCC=C1c2ccccc2CCc2ccccc21.[Cl-] + O
viscosity [mPa·s], 100 kPa
Settings	288.15 K	298.15 K	308.15 K	318.15 K
x2 = 0, x1 = 0.0001802	1.149	0.916	0.751	0.634
x2 = 0, x1 = 0.0007203	1.153	–	–	0.64
x2 = 0, x1 = 0.00126	1.159	0.93	0.763	0.646

CCCC[n+]1ccn(C)c1.[Br-] + Cc1ncc(CO)c(CO)c1O.Cl + O
viscosity [mPa·s], 100 kPa
Settings	293.15 K	298.15 K	303.15 K	308.15 K	313.15 K
x2 = 0, x1 = 0.0009002	1.033	0.918	0.823	0.753	0.676
x2 = 0, x1 = 0.001799	1.057	0.938	0.841	0.757	0.689
x2 = 0, x1 = 0.002696	1.068	1.001	0.904	0.796	0.748
x2 = 0.0002693, x1 = 0.0008999	1.037	0.922	0.827	0.757	0.68
x2 = 0.0002812, x1 = 0.001798	1.062	0.943	0.846	0.762	0.694
x2 = 0.0002821, x1 = 0.002695	1.073	1.006	0.909	0.801	0.753
x2 = 0.0004585, x1 = 0.0008998	1.041	0.926	0.831	0.761	0.684
x2 = 0.0005547, x1 = 0.002694	1.078	1.011	0.914	0.806	0.758
x2 = 0.0005732, x1 = 0.001798	1.067	0.948	0.851	0.767	0.699
x2 = 0.0008147, x1 = 0.0008995	1.047	0.932	0.837	0.768	0.691
x2 = 0.0008302, x1 = 0.001797	1.072	0.953	0.856	0.772	0.704
x2 = 0.0008383, x1 = 0.002693	1.083	1.016	0.919	0.811	0.763
x2 = 0.001093, x1 = 0.0008992	1.052	0.937	0.842	0.774	0.696
x2 = 0.001142, x1 = 0.001797	1.078	0.959	0.861	0.777	0.709
x2 = 0.001151, x1 = 0.002693	1.089	1.022	0.925	0.816	0.768
x2 = 0.00136, x1 = 0.000899	1.058	0.943	0.848	0.78	0.703
x2 = 0.001373, x1 = 0.001796	1.082	0.963	0.865	0.781	0.713
x2 = 0.001399, x1 = 0.002692	1.094	1.027	0.929	0.82	0.772
x2 = 0.001637, x1 = 0.0008987	1.063	0.948	0.854	0.785	0.708
x2 = 0.001664, x1 = 0.002691	1.098	1.032	0.933	0.825	0.777
x2 = 0.001674, x1 = 0.001796	1.087	0.968	0.87	0.786	0.718

CS(C)=O + Cn1cc[n+](CCCN)c1.F[B-](F)(F)F
Settings	viscosity [mPa·s]
328.15 K, 101 kPa, x2 = 0	1.249

CCCC[N+]1(C)CCCC1.FC(F)(F)C(F)(F)[P-](F)(F)(F)(C(F)(F)C(F)(F)F)C(F)(F)C(F)(F)F + FC(F)(F)c1ccccc1
101 kPa, x1 = 1
Settings	electrical conductivity [S/m]	viscosity [mPa·s]
298.1 K	0.113	283
303 K	0.146	214
308.1 K	0.186	166.2
313 K	0.23	122.1
318.1 K	0.273	100.3
323 K	0.332	80.1

CCCC[n+]1ccn(C)c1.[Br-] + NC(N)=NCCC[C@H](N)C(=O)O + O
Settings	viscosity [mPa·s]
313.15 K, 101.3 kPa, x2 = 0, x1 = 0.0007203	0.674

CCCC[n+]1ccn(C)c1.[Br-] + NC(N)=O + O
298.15 K, 100 kPa
Settings	viscosity [mPa·s]
x2 = 0, x3 = 0.9487	2.21
x2 = 0.008492, x3 = 0.9402	2.29
x2 = 0.01695, x3 = 0.9318	2.29
x2 = 0.02496, x3 = 0.9237	2.28
x2 = 0.02678, x3 = 0.9219	2.36
x2 = 0.03322, x3 = 0.9155	2.36
x2 = 0.04109, x3 = 0.9076	2.41

CCCCCCCCCCCC[N+](C)(C)Cc1ccccc1.[Cl-] + NCC(=O)NCC(=O)O + O
electrical conductivity [S/m], 101 kPa
Settings	293.15 K	298.15 K	303.15 K	308.15 K	313.15 K
x2 = 0.0008945, x1 = 0.0002797	0.0793	0.0896	0.0999	0.111	0.123
x2 = 0.0008945, x1 = 0.0003	0.0824	0.0938	0.105	0.117	0.129
x2 = 0.0008945, x1 = 0.0003225	0.086	0.0984	0.109	0.123	0.135
x2 = 0.0008945, x1 = 0.0003431	0.0893	0.102	0.115	0.128	0.14
x2 = 0.0008946, x1 = 0.0001787	0.0623	0.069	0.0771	0.086	0.0944
x2 = 0.0008946, x1 = 0.000206	0.0676	0.0752	0.0839	0.093	0.103
x2 = 0.0008946, x1 = 0.0002337	0.0721	0.081	0.09	0.0999	0.111
x2 = 0.0008946, x1 = 0.0002576	0.0759	0.0855	0.0949	0.106	0.118
x2 = 0.0008947, x1 = 6.107e-05	0.0231	0.0264	0.0294	0.0327	0.036
x2 = 0.0008947, x1 = 8.317e-05	0.0312	0.0352	0.0392	0.0433	0.0476
x2 = 0.0008947, x1 = 0.0001051	0.0388	0.0437	0.0485	0.0537	0.059
x2 = 0.0008947, x1 = 0.0001274	0.0473	0.0523	0.0589	0.0647	0.0718
x2 = 0.0008947, x1 = 0.000152	0.0562	0.0624	0.0692	0.0771	0.0851
x2 = 0.001798, x1 = 0.0001447	0.056	0.0627	0.0696	0.0768	0.0846
x2 = 0.001798, x1 = 0.0001707	0.063	0.0704	0.0781	0.0865	0.0956
x2 = 0.001798, x1 = 0.0001977	0.0685	0.0766	0.0852	0.0946	0.105
x2 = 0.001798, x1 = 0.0002221	0.0729	0.0816	0.091	0.101	0.113
x2 = 0.001798, x1 = 0.0002443	0.0767	0.0861	0.0963	0.107	0.12
x2 = 0.001798, x1 = 0.0002649	0.0802	0.0902	0.101	0.112	0.126
x2 = 0.001798, x1 = 0.000284	0.0835	0.094	0.105	0.118	0.131
x2 = 0.001798, x1 = 0.0003015	0.0864	0.0974	0.109	0.122	0.137
x2 = 0.001798, x1 = 0.000321	0.0898	0.101	0.114	0.127	0.142
x2 = 0.001799, x1 = 5.376e-05	0.0229	0.0259	0.029	0.0323	0.0357
x2 = 0.001799, x1 = 7.599e-05	0.0313	0.0352	0.0394	0.0437	0.0482
x2 = 0.001799, x1 = 9.786e-05	0.0395	0.0443	0.0494	0.0546	0.0601
x2 = 0.001799, x1 = 0.0001201	0.0476	0.0533	0.0593	0.0655	0.0721

Source: the CheMixHub ionic liquid set
